From PubChem BioAssay (NCI)
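Abbreviation: GI50, concentration required for 50% inhibition of growth. TGI: total growth inhibition.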

Key:
Experiment in all cases: NCI anticancer screen, dose series, 384-well format
786-0 renal = system: 786-0 renal
A498 renal = system: A498 renal
A549 NSCLC = system: A549 NSCLC
BT-549 breast = system: BT-549 breast
CAKI-1 renal = system: CAKI-1 renal
COLO 205 colon = system: COLO 205 colon
DU-145 prostate = system: DU-145 prostate
EKVX NSCLC = system: EKVX NSCLC
HCT-116 colon = system: HCT-116 colon
HCT-15 colon = system: HCT-15 colon
HL-60(TB) leukemia = system: HL-60(TB) leukemia
HOP-62 NSCLC = system: HOP-62 NSCLC
HS 578T breast = system: HS 578T breast
HT29 colon = system: HT29 colon
IGROV1 ovarian = system: IGROV1 ovarian
K-562 leukemia = system: K-562 leukemia
KM12 colon = system: KM12 colon
LOX IMVI melanoma = system: LOX IMVI melanoma
M14 melanoma = system: M14 melanoma
MALME-3M melanoma = system: MALME-3M melanoma
MCF7 breast = system: MCF7 breast
MDA-MB-231 breast = system: MDA-MB-231 breast
MDA-MB-435 melanoma = system: MDA-MB-435 melanoma
MDA-MB-468 breast = system: MDA-MB-468 breast
NCI-H23 lung = system: NCI-H23 lung
NCI-H460 NSCLC = system: NCI-H460 NSCLC
NCI-H522 lung = system: NCI-H522 lung
NCI/ADR-RES ovarian = system: NCI/ADR-RES ovarian
OVCAR-4 ovarian = system: OVCAR-4 ovarian
OVCAR-5 ovarian = system: OVCAR-5 ovarian
OVCAR-8 ovarian = system: OVCAR-8 ovarian
PC-3 prostate = system: PC-3 prostate
RPMI-8226 leukemia = system: RPMI-8226 leukemia
RXF 393 renal = system: RXF 393 renal
SF-295 CNS = system: SF-295 CNS
SF-539 CNS = system: SF-539 CNS
SK-MEL-2 melanoma = system: SK-MEL-2 melanoma
SK-MEL-28 melanoma = system: SK-MEL-28 melanoma
SK-OV-3 ovarian = system: SK-OV-3 ovarian
SNB-75 CNS = system: SNB-75 CNS
SR leukemia = system: SR leukemia
SW-620 colon = system: SW-620 colon
T-47D breast = system: T-47D breast
U251 glioblastoma = system: U251 glioblastoma
UACC-257 melanoma = system: UACC-257 melanoma
UACC-62 melanoma = system: UACC-62 melanoma
UO-31 renal = system: UO-31 renal

O=C1CC[C@H](N2Cc3c(OCc4ccc(CN5CCOCC5)cc4)cccc3C2=O)C(=O)N1
GI50 ([…]-0 renal): > 100 µM | TGI (786-0 renal): > 100 µM | GI50 (A498 renal): > 100 µM | TGI (A498 renal): > 100 µM | GI50 (A549 NSCLC): > 100 µM | TGI (A549 NSCLC): > 100 µM | GI50 (BT-549 breast): > 100 µM | TGI (BT-549 breast): > 100 µM | GI50 (CAKI-1 renal): > 100 µM | TGI (CAKI-1 renal): > 100 µM | GI50 (COLO 205 colon): > 100 µM | TGI (COLO 205 colon): > 100 µM | GI50 (DU-145 prostate): > 100 µM | TGI (DU-145 prostate): > 100 µM | GI50 (EKVX NSCLC): > 100 µM | TGI (EKVX NSCLC): > 100 µM | GI50 (HCT-116 colon): > 100 µM | TGI (HCT-116 colon): > 100 µM | GI50 (HCT-15 colon): > 100 µM | TGI (HCT-15 colon): > 100 µM | GI50 (HL-60(TB) leukemia): 43.9 µM | TGI (HL-60(TB) leukemia): > 100 µM | GI50 (HOP-62 NSCLC): > 100 µM | TGI (HOP-62 NSCLC): > 100 µM | GI50 (HS 578T breast): > 100 µM | TGI (HS 578T breast): > 100 µM | GI50 (HT29 colon): > 100 µM | TGI (HT29 colon): > 100 µM | GI50 (IGROV1 ovarian): > 100 µM | TGI (IGROV1 ovarian): > 100 µM | GI50 (K-562 leukemia): > 100 µM | TGI (K-562 leukemia): > 100 µM | GI50 (KM12 colon): > 100 µM | TGI (KM12 colon): > 100 µM | GI50 (LOX IMVI melanoma): > 100 µM | TGI (LOX IMVI melanoma): > 100 µM | GI50 (M14 melanoma): > 100 µM | TGI (M14 melanoma): > 100 µM | GI50 (MALME-3M melanoma): > 100 µM | TGI (MALME-3M melanoma): > 100 µM | GI50 (MCF7 breast): > 100 µM | TGI (MCF7 breast): > 100 µM | GI50 (MDA-MB-231 breast): > 100 µM | TGI (MDA-MB-231 breast): > 100 µM | GI50 (MDA-MB-435 melanoma): > 100 µM | TGI (MDA-MB-435 melanoma): > 100 µM | GI50 (MDA-MB-468 breast): > 100 µM | TGI (MDA-MB-468 breast): > 100 µM | GI50 (NCI-H23 lung): > 100 µM | TGI (NCI-H23 lung): > 100 µM | GI50 (NCI-H460 NSCLC): > 100 µM | TGI (NCI-H460 NSCLC): > 100 µM | GI50 (NCI-H522 lung): > 100 µM | TGI (NCI-H522 lung): > 100 µM | GI50 (NCI/ADR-RES ovarian): > 100 µM | TGI (NCI/ADR-RES ovarian): > 100 µM | GI50 (OVCAR-4 ovarian): > 100 µM | TGI (OVCAR-4 ovarian): > 100 µM | GI50 (OVCAR-5 ovarian): > 100 µM | TGI (OVCAR-5 ovarian): > 100 µM | GI50 (OVCAR-8 ovarian): > 100 µM | TGI (OVCAR-8 ovarian): > 100 µM | GI50 (PC-3 prostate): > 100 µM | TGI (PC-3 prostate): > 100 µM | GI50 (RPMI-8226 leukemia): 11.9 µM | TGI (RPMI-8226 leukemia): > 100 µM | GI50 (RXF 393 renal): > 100 µM | TGI (RXF 393 renal): > 100 µM | GI50 (SF-295 CNS): > 100 µM | TGI (SF-295 CNS): > 100 µM | GI50 (SF-539 CNS): > 100 µM | TGI (SF-539 CNS): > 100 µM | GI50 (SK-MEL-2 melanoma): > 100 µM | TGI (SK-MEL-2 melanoma): > 100 µM | GI50 (SK-MEL-28 melanoma): > 100 µM | TGI (SK-MEL-28 melanoma): > 100 µM | GI50 (SK-OV-3 ovarian): > 100 µM | TGI (SK-OV-3 ovarian): > 100 µM | GI50 (SNB-75 CNS): > 100 µM | TGI (SNB-75 CNS): > 100 µM | GI50 (SR leukemia): > 100 µM | TGI (SR leukemia): > 100 µM | GI50 (SW-620 colon): > 100 µM | TGI (SW-620 colon): > 100 µM | GI50 (T-47D breast): > 100 µM | TGI (T-47D breast): > 100 µM | GI50 (U251 glioblastoma): > 100 µM | TGI (U251 glioblastoma): > 100 µM | GI50 (UACC-257 melanoma): > 100 µM | TGI (UACC-257 melanoma): > 100 µM | GI50 (UACC-62 melanoma): > 100 µM | TGI (UACC-62 melanoma): > 100 µM | GI50 (UO-31 renal): > 100 µM | TGI (UO-31 renal): > 100 µM
